According to patent US20240109918A1, “HETEROCYCLIC COMPOUNDS AND USES THEREOF” (Kumquat Biosciences Inc., priority 2022, published 2024):

How the values were obtained:
KRASG12D = biological target: T1, KRASG12D (Homo sapiens, UniProt P01116, G12D); test: Bio-Biochem-PPI-HTRF Ras-SOS1 interaction assay (KRAS G12D); assay type: biochemical; conditions: 5 nM
T1 construct: made in house; host or cells: E. coli BL21 (DE3)
Summary of the method: (§1)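 Compounds tested in duplicate (10 μM to 0.01 μM) for disruption of His-hSOS1 binding to GST-tagged wild-type or G12D K-Ras in HEPES pH 7.4 buffer. TR-FRET read (Eu donor, XL665 acceptor) after about 10 min or longer; IC50 derived from the 665/620 nm emission ratio.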

KRASwt = biological target: T2, KRASwt (Homo sapiens, UniProt P01116); test: Bio-Biochem-PPI-HTRF Ras-SOS1 interaction assay (KRAS wt); assay type: biochemical; conditions: 5 nM
T2 construct: made in house; host or cells: E. coli BL21 (DE3)
Summary of the method: as §1

T1 sequence (P01116 1-188 isoform P01116-2 G12D): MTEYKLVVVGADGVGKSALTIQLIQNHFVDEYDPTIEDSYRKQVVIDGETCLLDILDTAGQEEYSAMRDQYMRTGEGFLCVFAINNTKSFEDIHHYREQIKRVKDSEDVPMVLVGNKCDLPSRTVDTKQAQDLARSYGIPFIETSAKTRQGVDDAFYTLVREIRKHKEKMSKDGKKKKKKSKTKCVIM
T2 sequence (P01116 1-188 isoform P01116-2): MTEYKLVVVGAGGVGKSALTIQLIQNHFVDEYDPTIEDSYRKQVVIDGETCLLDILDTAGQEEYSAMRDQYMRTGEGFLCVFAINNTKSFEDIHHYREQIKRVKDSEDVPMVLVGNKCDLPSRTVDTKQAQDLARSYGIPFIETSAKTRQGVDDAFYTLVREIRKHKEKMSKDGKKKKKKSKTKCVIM

N#Cc1c(N)sc2c(F)ccc(-c3c(Cl)cc4c(N5CCCCC6(CN(CC7CC7(F)F)C6)C5)nc(OC[C@@]56CCCN5C[C@H](F)C6)nc4c3F)c12 (stereo partly drawn) [compound 255, 2-amino-4-(6-chloro-4-(2-((2,2-difluorocyclopropyl)methyl)-2,6-diazaspiro[3.6]decan-6-yl)-8-fluoro-2-(((2R,7aS)-2-fluorotetrahydro-1H-pyrrolizin-7a(5H)-yl)methoxy)quinazolin-7-yl)-7-fluorobenzo[b]thiophene-3-carbonitrile]
IC50 (KRASG12D): < 5 µM | IC50 (KRASwt): < 5 µM

CC(O)(C(=O)N1CC2(CCCCN(c3nc(OC[C@@]45CCCN4C[C@H](F)C5)nc4c(F)c(-c5ccc(F)c6sc(N)c(C#N)c56)c(Cl)cc34)C2)C1)C1CC1 (stereo partly drawn) [compound 329, 2-amino-4-(6-chloro-4-(2-(2-cyclopropyl-2-hydroxypropanoyl)-2,6-diazaspiro[3.6]decan-6-yl)-8-fluoro-2-(((2R,7aS)-2-fluorotetrahydro-1H-pyrrolizin-7a(5H)-yl)methoxy)quinazolin-7-yl)-7-fluorobenzo[b]thiophene-3-carbonitrile]
IC50 (KRASG12D): < 5 µM | IC50 (KRASwt): < 5 µM

N#Cc1c(N)sc2c(F)ccc(-c3c(Cl)cc4c(N5CCCCC6(CN(C(=O)N7CC[C@H]7C#N)C6)C5)nc(OC[C@@]56CCCN5C[C@H](F)C6)nc4c3F)c12 [compound 224, (2S)-1-(6-(7-(2-amino-3-cyano-7-fluorobenzo[b]thiophen-4-yl)-6-chloro-8-fluoro-2-(((2R,7aS)-2-fluorotetrahydro-1H-pyrrolizin-7a(5H)-yl)methoxy)quinazolin-4-yl)-2,6-diazaspiro[3.6]decane-2-carbonyl)azetidine-2-carbonitrile]
IC50 (KRASG12D): < 5 µM | IC50 (KRASwt): < 5 µM

N#Cc1c(N)sc2c(F)ccc(-c3c(Cl)cc4c(N5CCCC6(CCNC6)C5)nc(OC[C@@]56CCCN5C[C@H](F)C6)nc4c3F)c12 (stereo partly drawn) [compound 111, 2-amino-4-(6-chloro-8-fluoro-2-(((2R,7aS)-2-fluorotetrahydro-1H-pyrrolizin-7a(5H)-yl)methoxy)-4-(2,7-diazaspiro[4.5]decan-7-yl)quinazolin-7-yl)-7-fluorobenzo[b]thiophene-3-carbonitrile]
IC50 (KRASG12D): < 5 µM | IC50 (KRASwt): < 5 µM

CN(C(=O)N1CC2(CCCCN(c3nc(OC[C@@]45CCCN4C[C@H](F)C5)nc4c(F)c(-c5ccc(F)c6sc(N)c(C#N)c56)c(Cl)cc34)C2)C1)C1CC1 [compound 234, 6-(7-(2-amino-3-cyano-7-fluorobenzo[b]thiophen-4-yl)-6-chloro-8-fluoro-2-(((2R,7aS)-2-fluorotetrahydro-1H-pyrrolizin-7a(5H)-yl)methoxy)quinazolin-4-yl)-N-cyclopropyl-N-methyl-2,6-diazaspiro[3.6]decane-2-carboxamide]
IC50 (KRASG12D): < 5 µM | IC50 (KRASwt): < 5 µM

Nc1nc2c(-c3c(Cl)cc4c(N5CCC6(CC5)CN(C(=O)C(F)F)C6)nc(OC[C@@]56CCCN5C[C@H](F)C6)nc4c3F)ccc(F)c2s1 [compound 139, 1-(7-(7-(2-amino-7-fluorobenzo[d]thiazol-4-yl)-6-chloro-8-fluoro-2-(((2R,7aS)-2-fluorotetrahydro-1H-pyrrolizin-7a(5H)-yl)methoxy)quinazolin-4-yl)-2,7-diazaspiro[3.5]nonan-2-yl)-2,2-difluoroethan-1-one]
IC50 (KRASG12D): < 5 µM | IC50 (KRASwt): < 5 µM

N#Cc1c(N)sc2c(F)ccc(-c3c(Cl)cc4c(N5CCCCC6(CN(C(=O)[C@H]7CC7(F)F)C6)C5)nc(OC[C@@]56CCCN5C[C@H](F)C6)nc4c3F)c12 (single isomer, unassigned) [compound 118]
IC50 (KRASG12D): < 5 µM | IC50 (KRASwt): < 5 µM

N#Cc1c(N)sc2c(F)ccc(-c3c(Cl)cc4c(N5CCOCC6(CN(C(=O)[C@H]7CC7(F)F)C6)C5)nc(OC[C@@]56CCCN5C[C@H](F)C6)nc4c3F)c12 [compound 247, 2-amino-4-(6-chloro-4-(2-((R)-2,2-difluorocyclopropane-1-carbonyl)-6-oxa-2,9-diazaspiro[3.6]decan-9-yl)-8-fluoro-2-(((2R,7aS)-2-fluorotetrahydro-1H-pyrrolizin-7a(5H)-yl)methoxy)quinazolin-7-yl)-7-fluorobenzo[b]thiophene-3-carbonitrile]
IC50 (KRASG12D): < 5 µM | IC50 (KRASwt): < 5 µM

N#Cc1c(N)sc2c(F)ccc(-c3c(Cl)cc4c(N5CCCCC6(CN(C(=O)C7CCOCC7)C6)C5)nc(OC[C@@]56CCCN5C[C@H](F)C6)nc4c3F)c12 [compound 300, 2-amino-4-(6-chloro-8-fluoro-2-(((2R,7aS)-2-fluorotetrahydro-1H-pyrrolizin-7a(5H)-yl)methoxy)-4-(2-(tetrahydro-2H-pyran-4-carbonyl)-2,6-diazaspiro[3.6]decan-6-yl)quinazolin-7-yl)-7-fluorobenzo[b]thiophene-3-carbonitrile]
IC50 (KRASG12D): < 5 µM | IC50 (KRASwt): < 5 µM

N#Cc1c(N)sc2c(F)ccc(-c3c(Cl)cc4c(N5CC(F)CCC6(CN(C(=O)[C@@H]7CC7(F)F)C6)C5)nc(OC[C@@]56CCCN5C[C@H](F)C6)nc4c3F)c12 (stereo partly drawn) [compound 269, 2-amino-4-(6-chloro-4-(2-((S)-2,2-difluorocyclopropane-1-carbonyl)-8-fluoro-2,6-diazaspiro[3.6]decan-6-yl)-8-fluoro-2-(((2R,7aS)-2-fluorotetrahydro-1H-pyrrolizin-7a(5H)-yl)methoxy)quinazolin-7-yl)-7-fluorobenzo[b]thiophene-3-carbonitrile]
IC50 (KRASG12D): < 5 µM | IC50 (KRASwt): < 5 µM

N#Cc1c(N)sc2c(F)ccc(-c3c(Cl)cc4c(N5CCCCC6(CN(C(=O)C7CCC7F)C6)C5)nc(OC[C@@]56CCCN5C[C@H](F)C6)nc4c3F)c12 (stereo partly drawn) [compound 160, 2-amino-4-(6-chloro-8-fluoro-4-(2-(2-fluorocyclobutane-1-carbonyl)-2,6-diazaspiro[3.6]decan-6-yl)-2-(((2R,7aS)-2-fluorotetrahydro-1H-pyrrolizin-7a(5H)-yl)methoxy)quinazolin-7-yl)-7-fluorobenzo[b]thiophene-3-carbonitrile]
IC50 (KRASG12D): < 5 µM | IC50 (KRASwt): < 5 µM

CC(C)(C(=O)N1CC2(CCCCN(c3nc(OC[C@@]45CCCN4C[C@H](F)C5)nc4c(F)c(-c5ccc(F)c6sc(N)c(C#N)c56)c(Cl)cc34)C2)C1)N1CCOCC1 [compound 266, 2-amino-4-(6-chloro-8-fluoro-2-(((2R,7aS)-2-fluorotetrahydro-1H-pyrrolizin-7a(5H)-yl)methoxy)-4-(2-(2-methyl-2-morpholinopropanoyl)-2,6-diazaspiro[3.6]decan-6-yl)quinazolin-7-yl)-7-fluorobenzo[b]thiophene-3-carbonitrile]
IC50 (KRASG12D): < 5 µM | IC50 (KRASwt): < 5 µM

N#Cc1c(N)sc2c(F)ccc(-c3c(Cl)cc4c(N5CCOC6(CN(C(=O)[C@@H]7CC7(F)F)C6)C5)nc(OC[C@@]56CCCN5C[C@H](F)C6)nc4c3F)c12 [compound 217, 2-amino-4-(6-chloro-4-(2-((S)-2,2-difluorocyclopropane-1-carbonyl)-5-oxa-2,8-diazaspiro[3.5]nonan-8-yl)-8-fluoro-2-(((2R,7aS)-2-fluorotetrahydro-1H-pyrrolizin-7a(5H)-yl)methoxy)quinazolin-7-yl)-7-fluorobenzo[b]thiophene-3-carbonitrile]
IC50 (KRASG12D): < 5 µM | IC50 (KRASwt): < 5 µM

N#Cc1c(N)sc2c(F)ccc(-c3c(Cl)cc4c(N5CCCCC6(CN(C(=O)C7CC7C(F)F)C6)C5)nc(OC[C@@]56CCCN5C[C@H](F)C6)nc4c3F)c12 (stereo partly drawn) [compound 287, 2-amino-4-(6-chloro-4-(2-(2-(difluoromethyl)cyclopropane-1-carbonyl)-2,6-diazaspiro[3.6]decan-6-yl)-8-fluoro-2-(((2R,7aS)-2-fluorotetrahydro-1H-pyrrolizin-7a(5H)-yl)methoxy)quinazolin-7-yl)-7-fluorobenzo[b]thiophene-3-carbonitrile]
IC50 (KRASG12D): < 5 µM | IC50 (KRASwt): < 5 µM

N#Cc1c(N)sc2c(F)ccc(-c3c(Cl)cc4c(N5CCOC6(CN(C#N)C6)C5)nc(OC[C@@]56CCCN5C[C@H](F)C6)nc4c3F)c12 [compound 190, 8-(7-(2-amino-3-cyano-7-fluorobenzo[b]thiophen-4-yl)-6-chloro-8-fluoro-2-(((2R,7aS)-2-fluorotetrahydro-1H-pyrrolizin-7a(5H)-yl)methoxy)quinazolin-4-yl)-5-oxa-2,8-diazaspiro[3.5]nonane-2-carbonitrile]
IC50 (KRASG12D): < 5 µM | IC50 (KRASwt): < 5 µM

N#Cc1c(N)sc2c(F)ccc(-c3c(Cl)cc4c(N5CCOCC6(CN(C(=O)C(F)Cl)C6)C5)nc(OC[C@@]56CCCN5C[C@H](F)C6)nc4c3F)c12 (stereo partly drawn) [compound 283, 2-amino-4-(6-chloro-4-(2-(2-chloro-2-fluoroacetyl)-6-oxa-2,9-diazaspiro[3.6]decan-9-yl)-8-fluoro-2-(((2R,7aS)-2-fluorotetrahydro-1H-pyrrolizin-7a(5H)-yl)methoxy)quinazolin-7-yl)-7-fluorobenzo[b]thiophene-3-carbonitrile]
IC50 (KRASG12D): < 5 µM | IC50 (KRASwt): < 5 µM

N#Cc1c(N)sc2c(F)ccc(-c3c(F)c4nc(OC[C@@]56CCCN5C[C@H](F)C6)nc(N5CCCCC6(CN(C(=O)C(F)F)C6)C5)c4c(=O)n3C3CC3)c12 [compound 233, 2-amino-4-(6-cyclopropyl-4-(2-(2,2-difluoroacetyl)-2,6-diazaspiro [3.6]decan-6-yl)-8-fluoro-2-(((2R,7aS)-2-fluorotetrahydro-1H-pyrrolizin-7a(5H)-yl)methoxy)-5-oxo-5,6-dihydropyrido[4,3-d]pyrimidin-7-yl)-7-fluorobenzo[b]thiophene-3-carbonitrile]
IC50 (KRASG12D): < 5 µM | IC50 (KRASwt): < 5 µM

C#CN1CCC2(CCN(c3nc(OC[C@@]45CCCN4C[C@H](F)C5)nc4c(F)c(-c5ccc(F)c6sc(N)c(C#N)c56)c(Cl)cc34)C2)C1=O (stereo partly drawn) [compound 225, 2-amino-4-(6-chloro-4-(7-ethynyl-6-oxo-2,7-diazaspiro[4.4]nonan-2-yl)-8-fluoro-2-(((2R,7aS)-2-fluorotetrahydro-1H-pyrrolizin-7a(5H)-yl)methoxy)quinazolin-7-yl)-7-fluorobenzo[b]thiophene-3-carbonitrile]
IC50 (KRASG12D): < 5 µM | IC50 (KRASwt): < 5 µM
